Laboratory results from PubChem BioAssay (NCI).
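Cells were grown in 96-well plates and exposed to each compound for 48 hours at five concentrations; endpoints were interpolated linearly between bracketing concentrations, or set to the highest concentration if not reached. GI50 marks 50% less growth. TGI is the concentration that stops growth completely.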

Legend:
Experiment in all cases: NCI-60 cell line screen, 48 h
A549 NSCLC = test system: A549 NSCLC
ACHN renal = test system: ACHN renal
KM12 colon = test system: KM12 colon
LOX IMVI melanoma = test system: LOX IMVI melanoma
MCF7 breast = test system: MCF7 breast
OVCAR-3 ovarian = test system: OVCAR-3 ovarian
OVCAR-5 ovarian = test system: OVCAR-5 ovarian
RXF 393 renal = test system: RXF 393 renal
SF-539 CNS = test system: SF-539 CNS
UO-31 renal = test system: UO-31 renal

| SMILES | GI50 (A549 NSCLC) [µM] | TGI (A549 NSCLC) [µM] | GI50 (ACHN renal) [µM] | TGI (ACHN renal) [µM] | GI50 (KM12 colon) [µM] | TGI (KM12 colon) [µM] | GI50 (LOX IMVI melanoma) [µM] | TGI (LOX IMVI melanoma) [µM] | GI50 (MCF7 breast) [µM] | TGI (MCF7 breast) [µM] | GI50 (OVCAR-3 ovarian) [µM] | TGI (OVCAR-3 ovarian) [µM] | GI50 (OVCAR-5 ovarian) [µM] | TGI (OVCAR-5 ovarian) [µM] | GI50 (RXF 393 renal) [µM] | TGI (RXF 393 renal) [µM] | GI50 (SF-539 CNS) [µM] | TGI (SF-539 CNS) [µM] | GI50 (UO-31 renal) [µM] | TGI (UO-31 renal) [µM] |
| --- | --- | --- | --- | --- | --- | --- | --- | --- | --- | --- | --- | --- | --- | --- | --- | --- | --- | --- | --- | --- |
| O=C1c2ccccc2C(=O)c2c(NCCN=Cc3ccccc3O)cccc21 | 4.69 | 14.4 | 3.4 | 16.3 | 2.93 | 8.37 | 3.89 | 9.63 | 1.57 | 5.27 | 2.38 | 7.92 | 14.2 | 99.3 | 2.18 | 6.94 | 2.96 | 13.3 | 2.51 | 11 |
| O=C(NC1CCCCC1)c1ccc(Nc2ncnc3c2cnn3-c2ccccc2)cc1 | 4.38 | 51.3 | 3.32 | 11 | 57.8 | > 100 | 4.49 | 22.3 | 74.1 | > 100 | 14.3 | > 100 | 15.2 | 95.2 | 2.43 | 9.33 | 3.81 | 17.1 | 23.9 | > 100 |
| Cc1ccc2occ/c(=N\Nc3ccccc3)c2c1 | – | > 100 | – | > 100 | – | 78.5 | – | > 100 | – | > 100 | – | > 100 | – | > 100 | – | 58.9 | – | > 100 | – | > 100 |
| O=C(CCN1CCOCC1)Nc1cccc(-n2cc(-c3ccncc3)c(-c3ccc(Cl)c(O)c3)n2)c1 | 3.75 | 16.1 | 2.5 | 12.5 | 2.46 | 11.5 | 1.91 | 11.8 | 0.634 | 11.9 | 0.644 | 7.16 | 4.07 | 18.4 | 1.39 | 4.66 | 1.77 | 3.72 | 1.69 | 11 |
| Cc1noc2c1-c1ccccc1C(c1ccc(Cl)cc1)=N[C@H]2CC(N)=O | 18.3 | > 100 | 6.37 | > 100 | 12.1 | > 100 | 2.3 | > 100 | 0.732 | > 100 | 3.75 | > 100 | > 100 | > 100 | 13 | 72.7 | 5.17 | > 100 | 0.283 | > 100 |
| CNC(C)[C@H]1CCC2C3CC=C4C(=O)[C@@H](NC(=O)C=C(C)C)CC[C@]4(C)C3CC[C@@]21C (some centres not stated) | 2.46 | 6.82 | 3.29 | 12.6 | 2.46 | 10.3 | 1.35 | 2.98 | 1.7 | 5.98 | 1.82 | 6.04 | 2.53 | 10.9 | 1.45 | 3.22 | 1.3 | 2.64 | 1.33 | 3.14 |
| COc1cc(/C=C2\CCC/C(=C\c3ccc(OCC4CO4)c(OC)c3)C2=O)ccc1OCC1CO1 (configuration not stated) | 2.14 | 5.09 | – | – | 1.88 | 5.13 | 1.23 | 3.78 | 2.02 | 7.32 | 2.44 | 6.23 | 2.87 | 10.6 | 1.6 | 3.05 | 2.4 | 6.78 | 2.51 | 7.94 |
| COc1ccc(-c2noc(N)c2-c2cc(OC)c3c(c2)OCO3)cc1 | 3.13 | > 100 | 6.88 | > 100 | 1.97 | > 100 | 4.02 | > 100 | 0.707 | > 100 | 2.53 | 12.9 | 5.63 | > 82.2 | 2.6 | 15 | 1.76 | 4.91 | 7.39 | > 100 |
| Clc1nc(Cl)c2ncn(Cc3ccccc3Cn3cnc4c(Cl)nc(Cl)nc43)c2n1 | 6.9 | 21.4 | 1.59 | 2.96 | 2.23 | 5.37 | 1.16 | 2.65 | 0.922 | 4.99 | 1.47 | 2.85 | 5.09 | 10.4 | 1.36 | 3.29 | 0.16 | 0.719 | 1.91 | 3.85 |
| NCCCOc1cc(Cl)ccc1NC(=O)c1cc2ccccc2cc1OCCCN | 1.54 | 3.06 | 1.48 | 2.88 | 1.48 | 2.91 | 1.2 | 2.59 | 1.62 | 3.07 | 1.32 | 2.65 | 1.42 | 3.01 | 1.24 | 2.54 | 1.5 | 2.95 | 1.2 | 2.65 |
| Oc1ccc(Oc2cnc3ccccc3n2)cc1 | > 100 | > 100 | 76.6 | > 100 | 45 | > 100 | > 100 | > 100 | > 100 | > 100 | > 100 | > 100 | > 100 | > 100 | 34.3 | > 100 | 77.2 | > 100 | 66.6 | > 100 |
| COc1ccc(-c2cc(Nc3ccnc(N4CCOCC4)n3)on2)cc1 | 0.224 | 12.1 | 0.74 | 13.6 | 0.0893 | 12.3 | 0.353 | 15.3 | 0.258 | 12.3 | 0.0728 | 2.66 | 0.684 | 20.8 | 0.16 | 0.564 | 0.264 | 1.16 | 0.742 | 13.8 |
| CCc1nc(Cl)c(Cl)c(Cl)n1 | – | > 100 | – | > 100 | – | > 100 | – | > 100 | – | > 100 | – | > 100 | – | > 100 | – | > 100 | – | > 100 | – | > 100 |
| Cc1c2c(C(N)=O)nccc2c(C)c2c1c1ccccc1n2Cc1ccccc1 | – | 35.4 | – | 37.5 | – | 72.6 | – | 19.7 | – | > 100 | – | 21.1 | – | > 100 | – | 31.9 | – | 37.7 | – | 37.6 |
| C=C1C(O)C2C(=C(C)C13CC3)C(=O)C(C)(C)C2OC (configuration not stated) | > 100 | > 100 | > 100 | > 100 | > 100 | > 100 | > 100 | > 100 | 69.4 | > 100 | > 100 | > 100 | > 100 | > 100 | > 100 | > 100 | > 100 | > 100 | > 100 | > 100 |
| O=C(N/N=C/c1ccc(O)cc1O)c1cccnc1 | 4.66 | > 100 | 1.47 | > 100 | 3.62 | > 100 | 1.84 | > 100 | 1.94 | 7.5 | 0.474 | 29.4 | 14 | > 100 | 3.74 | > 100 | 2.64 | 19.3 | 1.46 | > 100 |
| O=C1/C(=C/N2N=C(c3ccc4ccccc4c3)CC2c2ccccc2O)SC(=S)N1c1cccnc1 (configuration not stated) | 0.704 | > 100 | 1.65 | > 100 | 0.473 | > 100 | 1.24 | > 100 | 0.371 | > 100 | 0.571 | 38.5 | 6.19 | > 100 | 1.6 | 8.19 | 1.18 | 5.16 | 0.852 | > 100 |
| CCOC(=O)C1=C(N)Oc2c(sc3c(C)cccc23)C1c1ccc(F)cc1 (configuration not stated) | 0.804 | 17.2 | 0.692 | 15.9 | 0.464 | 13.6 | 0.596 | 12.3 | 0.47 | 11.4 | 0.403 | 13.1 | 1.67 | 17.6 | 0.242 | 0.639 | 0.36 | 3.48 | 0.583 | 18.3 |
| CC(=O)NC1CONC1=O (configuration not stated) | – | > 100 | – | > 100 | – | > 100 | – | > 100 | – | > 100 | – | > 100 | – | > 100 | – | > 100 | – | > 100 | – | > 100 |
| COc1ccc(-c2nn(-c3cccc(Cl)c3)cc2-c2nc(N)[nH]c(=O)c2C#N)cc1 | 5.13 | 50.8 | 9.92 | > 100 | 3.84 | 15.2 | 4.02 | 20.1 | 3.54 | 28.5 | 3.38 | 10 | 14.6 | 51.4 | 4.51 | 22.4 | 6.59 | 32.2 | 2.94 | 47.8 |
| COc1ccc(/C=C/c2cnccn2)cc1OC | – | > 10 | – | > 10 | – | > 10 | – | > 10 | – | > 10 | – | > 10 | – | > 10 | – | > 10 | – | > 10 | – | > 10 |
| CN(C)CCNc1nc2ccccc2c2c(=O)c3cc(F)ccc3sc12 | 2.1 | 4.83 | 1.65 | 3.01 | 1.93 | 3.56 | 1.63 | 3.03 | 1.62 | 3.22 | 1.84 | 3.33 | 1.58 | 2.95 | 1.45 | 2.83 | 1.67 | 3.07 | 1.4 | 2.73 |
| Oc1ccc(N=Nc2nccs2)c(O)c1 | 5.11 | 54.4 | 2.96 | 33.8 | 4.57 | 22.7 | 3.28 | 18.7 | 3.06 | 15.1 | 2.4 | 7.37 | 7.84 | 29.4 | 5.65 | 30.1 | 6.66 | 28.9 | 3.51 | 21.8 |
| NC(N)=N/N=C(\N=Nc1ccccc1)c1ccc(Cl)cc1 | 4.25 | 18.5 | 2.51 | 8.06 | 2.15 | 7.76 | 1.18 | 3.54 | 2.43 | 14.2 | 2.8 | 7.24 | 3.69 | 16.8 | 2.69 | 9.33 | 2.98 | 8.1 | 2.29 | 6.34 |
| Cn1cc(S(=O)(=O)N2CCC3=Cc4c(cnn4-c4ccc(F)cc4)C[C@]3(C(=O)c3cc(C(F)(F)F)ccn3)C2)cn1 | 39.7 | > 100 | > 100 | > 100 | 75.8 | > 100 | > 100 | > 100 | 6.34 | > 100 | > 100 | > 100 | > 100 | > 100 | 5.19 | > 100 | 95.8 | > 100 | 9.52 | > 100 |
| COc1cc(/C=C/C(=O)C(C(=O)/C=C/c2ccc(OC(=O)CCNC34CC5CC(CC(C5)C3)C4)c(OC)c2)C(=O)CCNC23CC4CC(CC(C4)C2)C3)ccc1OC(=O)CCNC12CC3CC(CC(C3)C1)C2 (configuration not stated) | 2.86 | 10.1 | 4.03 | 34.1 | 2.28 | 5.96 | 1.98 | 3.94 | 1.97 | 6.28 | 4.98 | > 100 | 5.65 | 19.6 | 1.96 | 5.17 | 2.27 | 5.01 | 2.71 | 18.7 |
| NCCCn1c2c(c3ccccc3c1=O)C(=O)c1ccccc1-2 | 0.0597 | 0.815 | < 0.0359 | – | 0.124 | 2.65 | 0.0649 | 0.702 | 0.0728 | 18 | 0.721 | 5.25 | 0.306 | 2.94 | 1.22 | 6.68 | 0.104 | 1.13 | 0.248 | 16.5 |
